Test results taken from patent publication US20260234123A1, “Inhibitors of NLRP3” (Mwyngil Therapeutics, Inc., priority 2023, published 2026).

Test system: IL1b release THP-1
Assay: IL1b release THP-1 (ELISA)
Format: cell-based
Conditions: Homo sapiens; average EC50; THP-1 cells primed with 1 μg/ml LPS 4 h, stimulated with 10 μM Nigericin 2 h; IL-1β in supernatant by ELISA; read-out: THP 1 IL 1b, EC50
Procedure: Example A. Primary Assays Used to Determine IL1b Release THP-1 (ELISA)
• Microbiological safety cabinet, classII (NuAire, USA) • CO2 incubator (VWR Science, USA) • Countess Automated Cell Counter (Invitrogen, USA, cat. number C10227) • Centrifuge CM 6M (Elmi, Latvia) • Serological pipettes 2, 5, 10, 25, 50, 100 ml sterile (Santa Cruz Biotechnology, Inc., USA, sc-200277, sc-200279, sc-200281, sc-200283, Sc-213234, sc-516777) • Single and multichannel pipettes 0.2-10 μL, 50-1200 μL (Eppendorf AG-Hamburg, Germany) • 50 mL PP sterile tubes (Greiner, cat. Number 210261).
• RPMI-1640 (PanEco, C330) • Sodium pyruvate (Paneco, cat. number Φ023) • Non-Essential amino acids 50× (Paneco, Φ116) • Essential amino acids 50× (Paneco, Φ115/50) • FBS (Hyclone Laboratories Inc, USA, SV30160.03) • Antibiotic-antimycotic (Gibco, USA, 15240-062) • 2-mercaptoethanol 1000×55 mM (Gibco, USA, 21985-023) • LPS-EB ultrapure (invivogen, cat. number tlrl-3pelps) • Nigericin (Sigma, cat. number N7143) • ELISA kit, IL-1beta (Cat #A-8766, Interleukin-1 beta-EIA-BEST, Vector Best). LPS Preparation (5 mg/ml): • 1. Add 1 ml of endotoxin-free water according manufacturer's protocol • 2. Vortex until complete solubilization • 3. Aliquote and store at […] for long term storage.
• 1. Add methanol to 10 mg of powder to produce the 10 mM Nigericin solution • 2. Vortex until complete solubilization • 3. Store at 4° C.
THP-1 cells were propagated in RPMI-1640 (10% FBS, Antibiotic-antimycotic 1×, non-Essential amino acids 1×, Essential amino acids 1×, Sodium pyruvate 2×, 2-mercaptoethanol 0.05 mM) at 37° C. and at 5% CO2 in an incubator.
• 1. THP-1 cells were spined at 100 g for 5 min in 50 ml tube. • 2. THP-1 cells were resuspended in warm culture medium (w/o FBS, w/o Antibiotic-antimycotic, non-Essential amino acids 1×, Essential amino acids 1×, Sodium pyruvate 2×) to the concentration 1,3×10^6 cells. • 3. THP-1 cells were primed in tube with 1 μg/ml of LPS for 4 h at 37° C. and at 5% CO2 in an incubator. • 4. THP-1 cells were stimulated with 10 μM of Nigericin (Cat #N7143-10 MG, Sigma Aldrich) for 2 h at 37° C. and at 5% CO2 in an incubator. • 5. After the full activation, the supernatant was collected and the levels of IL-1β were assessed via ELISA according manufacturer instructions (Cat #A-8766, Vector Best).
The average EC50 values are shown in Table A, wherein “A” corresponds to EC50: A≤0.5 μM, “B” corresponds to 0.5 μM<EC50≤1.0 μM, “C” 1.0 μM<EC50≤5.0 μM, “D” corresponds to 5.0 μM<EC50≤30 μM and “E” corresponds to EC50>30 μM.

Row | SMILES | EC50 [nM]
1 | CCN1CCC[C@@H](Nc2cc(C)c(-c3ccc(C(F)(F)F)cc3NS(=O)(=O)CC)nn2)C1 [Compound 63, N-[2-[6-[[(3R)-1-ethyl-3-piperidyl]amino]-4-methyl-pyridazin-3-yl]-5-(trifluoromethyl)phenyl]ethanesulfon-amide] | < 500
2 | CCN1CCC[C@@H](Nc2cc(C)c(-c3ccc(C(F)(F)F)cc3NS(=O)(=O)C3CC3)nn2)C1 [Compound 65, (R)—N-(2-(6-((1-Ethylpiperidin-3-yl)amino)-4-methylpyridazin-3-yl)-5-(trifluoromethyl)phenyl) cyclopropanesulfonamide] | < 500
3 | CCN1C[C@H](F)C[C@@H](Nc2nnc(-c3ccc(C(F)(F)F)cc3NS(C)(=O)=O)cc2C)C1 [Compound 66, N-(2-(6-(((3R,5R)-1-ethyl-5-fluoropiperidin-3-yl)amino)-5-methylpyridazin-3-yl)-5-(trifluoromethyl)phenyl) methanesulfonamide] | 500 to 1000
4 | Cc1cc(-c2ccc(C(F)(F)F)cc2NS(C)(=O)=O)nnc1N[C@@H]1CCCNC1 [Compound 67, (R)—N-(2-(5-methyl-6-(piperidin-3-ylamino)pyridazin-3-yl)-5-(trifluoromethyl)phenyl) methanesulfonamide] | 1000 to 5000
5 | CCN1CCC[C@@H](Nc2nnc(-c3ccc(C(F)(F)F)cc3NS(=O)(=O)c3c[nH]cn3)cc2C)C1 [Compound 68, (R)—N-(2-(6-((1-Ethylpiperidin-3-yl)amino)-5-methylpyridazin-3-yl)-5-(trifluoromethyl)phenyl)-1H-imidazole-5-sulfonamide] | 5000 to 30000
6 | CCN1CCC[C@@H](Nc2cc(C)c(-c3ccc(C(F)(F)F)cc3NS(=O)(=O)c3c[nH]cn3)nn2)C1 [Compound 69, N-[2-[6-[[(3R)-1-ethyl-3-piperidyl]amino]-4-methyl-pyridazin-3-yl]-5-(trifluoromethyl)phenyl]-1H-imidazole-4-sulfonamide] | 1000 to 5000
7 | CN1CCC[C@@H](Nc2nnc(-c3ccc(C(F)(F)F)c4c3NS(=O)(=O)N4)cc2C(F)(F)F)C1 [Compound 93, 6-[2,2-dioxo-4-(trifluoromethyl)-1,3-dihydro-2lambda6,1,3-benzothiadiazol-7-yl]-N-[(3R)-1-methyl-3-piperidyl]-4-(trifluoromethyl)pyridazin-3-amine] | 5000 to 30000
8 | CN1CCC[C@@H](Nc2cc(C(F)(F)F)c(-c3ccc(C(F)(F)F)c(N)c3N)nn2)C1 [Compound 101, 3-[6-[[(3R)-1-methyl-3-piperidyl]amino]-4-(trifluoromethyl)pyridazin-3-yl]-6-(trifluoromethyl)benzene-1,2-diamine] | 1000 to 5000
9 | CN1CCC[C@@H](Nc2nnc(-c3ccc(C(F)(F)F)c(N)c3N)cc2C(F)(F)F)C1 [Compound 102, 3-[6-[[(3R)-1-methyl-3-piperidyl]amino]-5-(trifluoromethyl)pyridazin-3-yl]-6-(trifluoromethyl)benzene-1,2-diamine] | 5000 to 30000
10 | Cc1cc(N[C@@H]2CCCN(C(C)C)C2)nnc1-c1ccc(C(F)(F)F)cc1NC(=O)C(F)(F)F [Compound 117, (R)-2,2,2-Trifluoro-N-(2-(6-((1-isopropylpiperidin-3-yl)amino)-4-methylpyridazin-3-yl)-5-(trifluoromethyl)phenyl) acetamide] | < 500
11 | CNc1cc(C(F)(F)F)ccc1-c1cc(C)c(N[C@@H]2CCCN(C(C)C)C2)nn1 [Compound 119, N-[(3R)-1-isopropyl-3-piperidyl]-4-methyl-6-[2-(methylamino)-4-(trifluoromethyl)phenyl]pyridazin-3-amine] | < 500

Continued, values first:

Row | EC50 [nM] | SMILES
12 | < 500 | CCN1CCC[C@@H](Nc2nnc(-c3ccc(C(F)(F)F)cc3NS(=O)(=O)C3CC3)cc2C)C1 [Compound 64]
13 | 1000 to 5000 | CCN1CCC[C@@H](Nc2cc(C)c(-c3ccc(C(F)(F)F)cc3NS(=O)(=O)C(C)C)nn2)C1 [Compound 70, N-[2-[6-[[(3R)-1-ethyl-3-piperidyl]amino]-4-methyl-pyridazin-3-yl]-5-(trifluoromethyl)phenyl]propane-2-sulfonamide]
14 | 1000 to 5000 | Cc1cc(N[C@@H]2CCCNC2)nnc1-c1ccc(C(F)(F)F)cc1NS(C)(=O)=O [Compound 71, N-[2-[4-methyl-6-[[(3R)-3-piperidyl]amino]pyridazin-3-yl]-5-(trifluoromethyl)phenyl]methanesulfon-amide]
15 | 5000 to 30000 | CCN1CCC[C@@H](Nc2nnc(-c3ccc(C(F)(F)F)cc3NS(=O)(=O)C(C)C)cc2C)C1 [Compound 72]
16 | < 500 | Cc1cc(N[C@@H]2CCCN(C)C2)nnc1-c1ccc(C(F)(F)F)c(N)c1N [Compound 100, (R)-3-(4-methyl-6-((1-methylpiperidin-3-yl)amino)pyridazin-3-yl)-6-(trifluoromethyl)benzene-1,2-diamine]
17 | 5000 to 30000 | Cc1cc(-c2ccc(C(F)(F)F)c(N)c2N)nnc1N[C@@H]1CCCN(C)C1 [Compound 103, 3-[5-methyl-6-[[(3R)-1-methyl-3-piperidyl]amino]pyridazin-3-yl]-6-(trifluoromethyl)benzene-1,2-diamine]
18 | < 500 | CNc1cc(C(F)(F)F)ccc1-c1nnc(N[C@@H]2CCCN(C(C)C)C2)cc1C [Compound 108, N-[(3R)-1-isopropyl-3-piperidyl]-5-methyl-6-[2-(methylamino)-4-(trifluoromethyl)phenyl]pyridazin-3-amine]
19 | < 500 | CCNc1cc(C(F)(F)F)ccc1-c1nnc(N[C@@H]2CCCN(C(C)C)C2)cc1C [Compound 109, 6-[2-(ethylamino)-4-(trifluoromethyl)phenyl]-N-[(3R)-1-isopropyl-3-piperidyl]-5-methyl-pyridazin-3-amine]
20 | < 500 | Cc1cc(N[C@@H]2CCCN(C(C)C)C2)nnc1-c1ccc(C(F)(F)F)cc1N [Compound 110, (R)-6-(2-Amino-4-(trifluoromethyl)phenyl)-N-(1-isopropylpiperidin-3-yl)-5-methyl pyridazin-3-amine]
21 | < 500 | Cc1cc(N[C@@H]2CCCN(C(C)C)C2)nnc1-c1ccc(C(F)(F)F)cc1NC(C)C [Compound 111, 6-[2-(isopropylamino)-4-(trifluoromethyl)phenyl]-N-[(3R)-1-isopropyl-3-piperidyl]-5-methyl-pyridazin-3-amine]
22 | < 500 | Cc1cc(N[C@@H]2CCCN(C(C)C)C2)nnc1-c1ccc(C(F)(F)F)cc1Nc1ccccc1 [Compound 112, 6-[2-anilino-4-(trifluoromethyl)phenyl]-N-[(3R)-1-isopropyl-3-piperidyl]-5-methyl-pyridazin-3-amine]
23 | < 500 | Cc1cc(N[C@@H]2CCCN(C(C)C)C2)nnc1-c1ccc(C(F)(F)F)cc1NC(=O)C(F)F [Compound 113]
24 | < 500 | CCNc1cc(C(F)(F)F)ccc1-c1cc(C)c(N[C@@H]2CCCN(C(C)C)C2)nn1 [Compound 114, 6-[2-(ethylamino)-4-(trifluoromethyl)phenyl]-N-[(3R)-1-isopropyl-3-piperidyl]-4-methyl-pyridazin-3-amine]
25 | < 500 | Cc1cc(-c2ccc(C(F)(F)F)cc2NC(C)C)nnc1N[C@@H]1CCCN(C(C)C)C1 [Compound 115, 6-[2-(isopropylamino)-4-(trifluoromethyl)phenyl]-N-[(3R)-1-isopropyl-3-piperidyl]-4-methyl-pyridazin-3-amine]
26 | < 500 | CCN1CCC[C@@H](Nc2cc(C)c(-c3ccc(C(F)(F)F)cc3NC(=O)C(F)(F)F)nn2)C1 [Compound 116, N-[2-[6-[[(3R)-1-ethyl-3-piperidyl]amino]-4-methyl-pyridazin-3-yl]-5-(trifluoromethyl)phenyl]-2,2,2-trifluoro-acetamide]
27 | < 500 | Cc1cc(-c2ccc(C(F)(F)F)cc2N)nnc1N[C@@H]1CCCN(C(C)C)C1 [Compound 118, 6-[2-amino-4-(trifluoromethyl)phenyl]-N-[(3R)-1-isopropyl-3-piperidyl]-4-methyl-pyridazin-3-amine]
28 | < 500 | Cc1cc(-c2ccc(C(F)(F)F)cc2NC(=O)C(F)F)nnc1N[C@@H]1CCCN(C(C)C)C1 [Compound 120]
